Reference: publication PMC8443696, “Structural determinants and regulation of spontaneous activity in GABAA receptors” (Nature Communications, 2021)
Several values for one entry are separate records, joined by “and”; a condition that tells them apart may be missing. Equal values may be shown once. Read-outs that look alike come from different tables or passages of the source.

How the values were obtained:
Assay type in all cases: cell-based, mouse
α4β2δ receptor = tested on: T1, α4β2δ receptor; assay: Quantification of spontaneous activity (Ispont) in HEK cells, whole-cell patch clamp
T1 construct: expressed in transfected cells; host or cells: HEK 293
Description: (§1) All components were obtained from Life Technologies.
(§2) Currents were acquired with Clampex ver.
(§3) Cells were voltage clamped at −40 mV.
(§4) For assessment of the efficacy of allosteric modulators on spontaneous activity, compounds were briefly applied (3–5 s) to achieve steady-state currents (IMod). […] The IMod was summed with IPTX (or subtracted for inhibitory modulators) and the Ispont calculated, as described by Eq. (2):2 Ispont(%)=[(IPTX+IMod)/(IPTX+IMax)]×100……………………………………

α4β3δ GABAARs = tested on: T2, α4β3δ GABAARs; assay: Single-channel recording of spontaneous currents, outside-out patches of HEK cells; conditions: 100 nM THDOC, absence of GABA, individual patches
T2 construct: expressed in transfected cells; host or cells: HEK cells (outside-out patches)
Method: To limit ion channel density in individual patches, HEK cells were transfected with 5 ng α4, β3, δ and eGFP cDNAs. Resulting spontaneous single-channel currents were digitised at a sampling rate of 20 kHz and filtered at 5 kHz with a 4-pole Bessel filter (24 dB per octave). A fixed time resolution of 80 μs was used as a preset. Recordings were undertaken using thick-walled borosilicate patch pipettes (6–10 MΩ) filled with a solution containing (mM): 145 CsCl, 2.5 NaCl, 10 HEPES, 1 EGTA, 4 MgATP, pH 7.3. Osmolarity was 300 ± 20 mOsm/L. Cells were perfused with an external solution consisting of (mM): 145 NaCl, 2.5 KCl, 1 CaCl2, 1 MgCl2, 10 HEPES, 10 glucose, pH 7.3. Prior control recordings were obtained using untransfected HEK cells to identify endogenous channel currents.
Channel currents were digitally low pass filtered at 1–2 kHz prior to analysis. […] Channel dwell states were identified using a threshold cursor method. This state transition detection method for open and shut events was used to assemble an idealised record of the digitised data. Open times affected by channel stacking were not included in the analyses and sub-conductance states were also rare and excluded from the analysis.
The analysis of the dwell times for single-channel currents was performed by fitting a mixture of exponential components to the open time distributions. These defined the mean open times and their relative proportions (area of the components) based on using a Levenberg-Marquardt non-linear least-squares routine (WinEDR ver 3.8.7, courtesy of J Dempster, University of Strathclyde).

α4β3δ receptors = target: T3, α4β3δ receptors (UniProt P18506+P63080+Q9D6F4); conditions: for Ispont in the presence of modulator: PS 10 µM (Fig. 6c)
T3 construct: expressed in transfected cells; host or cells: HEK 293
Description: as §1, §2, §3, §4

α4^Q246Mβ3δ receptors = tested on: T4, α4^Q246Mβ3δ receptors; assay: Quantification of spontaneous activity (Ispont) in HEK cells, whole-cell patch clamp; conditions: α4Q246Mβ3δ, PS 10 µM (Fig. 6c)
T4 construct: expressed in transfected cells; host or cells: HEK 293
Description: as §1, §2, §3, §4

α4β3^S409Aδ receptors = tested on: T5, α4β3^S409Aδ receptors; assay: as above; conditions: α4β3S409Aδ, PS 10 µM (Fig. 6c)
T5 construct: expressed in transfected cells; host or cells: HEK 293
Description: as §1, §2, §3, §4

α1β3γ2L receptors = tested on: T6, α1β3γ2L receptors; assay: as above; conditions: α1β3γ2L THIP (Fig. 1d); THIP 3 mM, PTX 100 µM; individual cells
T6 construct: expressed in transfected cells; host or cells: HEK 293
Description: as §1, §2, §3, §4

T3 sequence (Q9D6F4 36-552): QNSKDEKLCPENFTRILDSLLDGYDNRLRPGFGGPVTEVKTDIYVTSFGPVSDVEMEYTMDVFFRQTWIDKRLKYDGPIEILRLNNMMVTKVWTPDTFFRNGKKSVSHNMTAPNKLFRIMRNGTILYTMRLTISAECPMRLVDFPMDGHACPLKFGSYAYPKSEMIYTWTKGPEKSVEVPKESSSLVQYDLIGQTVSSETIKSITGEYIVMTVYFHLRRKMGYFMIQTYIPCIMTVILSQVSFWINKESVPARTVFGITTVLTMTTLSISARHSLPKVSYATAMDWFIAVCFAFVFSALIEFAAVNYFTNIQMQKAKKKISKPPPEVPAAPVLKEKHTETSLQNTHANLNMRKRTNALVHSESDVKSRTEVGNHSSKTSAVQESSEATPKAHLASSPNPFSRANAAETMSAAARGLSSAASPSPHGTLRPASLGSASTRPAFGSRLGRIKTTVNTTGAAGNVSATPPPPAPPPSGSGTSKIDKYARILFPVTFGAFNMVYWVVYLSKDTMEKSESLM
T3 sequence (P63080 26-473): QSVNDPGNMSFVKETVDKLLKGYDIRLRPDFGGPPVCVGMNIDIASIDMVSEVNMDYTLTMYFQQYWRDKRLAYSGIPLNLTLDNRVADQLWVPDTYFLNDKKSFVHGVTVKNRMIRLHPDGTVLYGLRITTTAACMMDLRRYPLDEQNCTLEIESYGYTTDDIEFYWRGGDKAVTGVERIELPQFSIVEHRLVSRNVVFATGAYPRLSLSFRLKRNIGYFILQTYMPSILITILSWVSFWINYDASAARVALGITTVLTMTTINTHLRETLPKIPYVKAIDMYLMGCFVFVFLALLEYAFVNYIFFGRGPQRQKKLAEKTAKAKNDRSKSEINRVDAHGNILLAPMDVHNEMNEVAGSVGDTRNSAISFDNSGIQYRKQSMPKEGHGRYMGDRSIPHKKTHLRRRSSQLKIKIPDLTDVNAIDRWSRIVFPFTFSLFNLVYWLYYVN
T3 sequence (P18506 25-449): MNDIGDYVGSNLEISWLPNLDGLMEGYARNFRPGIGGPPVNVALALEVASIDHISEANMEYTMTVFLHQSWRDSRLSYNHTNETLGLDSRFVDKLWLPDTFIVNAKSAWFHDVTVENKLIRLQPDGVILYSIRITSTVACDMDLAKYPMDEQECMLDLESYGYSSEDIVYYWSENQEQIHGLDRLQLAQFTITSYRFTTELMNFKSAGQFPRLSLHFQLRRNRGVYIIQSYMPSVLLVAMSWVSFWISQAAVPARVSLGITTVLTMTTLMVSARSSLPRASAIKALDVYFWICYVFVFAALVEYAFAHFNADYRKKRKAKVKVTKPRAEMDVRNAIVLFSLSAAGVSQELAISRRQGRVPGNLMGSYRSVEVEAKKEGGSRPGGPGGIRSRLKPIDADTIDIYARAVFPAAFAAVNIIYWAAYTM

Compound: C[C@]12CC[C@@H](O)C[C@H]1CC[C@@H]1[C@@H]2CC[C@]2(C)[C@@H](C(=O)CO)CC[C@@H]12 [THDOC, tetrahydro-deoxycorticosterone]
- Ispont in the presence of modulator (α4β2δ receptor; THDOC 100 nM (Fig. 6b)): 0% and 0.09895% and 0.3365%
- Area A1 of open time distribution (row head printed 'thdoc t2', r12) (α4β3δ GABAARs): did not significantly affect
- Area A2 of open time distribution (thdoc t2, r14) (α4β3δ GABAARs): did not significantly affect
- Area A1 of open time distribution (row head printed 'thdoc t2', r12) (α4β3δ GABAARs; listed as thdoc): 7.49E+01 and 60.19 and 6.51E+01 and 8.65E+01 and 4.84E+01 and 64.73 and 86.6 and 77.97 and 79.7 and 73.6
- Area A2 of open time distribution (thdoc t2, r14) (α4β3δ GABAARs; listed as thdoc): 25.1 and 39.81 and 34.92 and 13.51 and 51.6 and 35.27 and 13.4 and 22.03 and 20.3 and 26.4

Compound: CC(=O)[C@H]1CC[C@H]2[C@@H]3CC[C@H]4C[C@H](O)CC[C@]4(C)[C@H]3CC[C@]12C [allopregnanolone]
- Ispont in the presence of modulator (α4β2δ receptor; AP 100 nM (Fig. 6b), listed as AP): 0% and 0.09895% and 0.3946%

Compound: pregnenolone sulphate [Pregnenolone sulfate]
- Ispont in the presence of modulator (α4β3δ receptors; α4β3δ): reduced
- Ispont in the presence of modulator (α4β3δ receptors; α4β3δ, listed as PS): 5.825% and 4.865% and 6.452% and 3.37% and 4.547% and 9.251% and 6.244% and 4.926%
- Ispont in the presence of modulator (α4^Q246Mβ3δ receptors): reduced
- Ispont in the presence of modulator (α4^Q246Mβ3δ receptors; listed as PS): 3.665% and 9.322% and 7.162% and 6.1828% and 3.237% and 4.8719% and 4.011%
- Ispont in the presence of modulator (α4β3^S409Aδ receptors): reduced
- Ispont in the presence of modulator (α4β3^S409Aδ receptors; listed as PS): 0.7651% and 0.3749% and 0.1269% and 0.9165% and 2.143% and 0.1295% and 1.652%

Compound: Oc1noc2c1CCNC2 [THIP, 4,5,6,7-tetrahydroisoxazolo[5,4-c]pyridin-3-ol]
- Ispont, IMax from THIP (α4β3δ receptors; α4β3δ THIP (Fig. 1d), THIP 3 mM, PTX 100 µM, individual cells): 3.988% and 7.572% and 10.0793% and 6.822% and 17.8571% and 28.6432% and 15.8524%
- IMax compared to GABA (α4β3δ receptors; α4β3δ, THIP 3 mM): larger
- Ispont, IMax from THIP (α1β3γ2L receptors): 1.055% and 0.4509% and 8.753% and 3.449% and 0.8828% and 1.773%
